Like-named read-outs stand apart in the source and are kept apart here.
What was measured:
[1] = target: T1, OATP1B1 (Homo sapiens, UniProt Q9Y6L6); test: Inhibition by CLF of estrone-3-sulfate transport in CHO cells expressing OATP1B1; format: cell-based; details: 0, 5 or 50 μmol/L CLF, 1 μmol/L estrone-3-sulfate
T1 construct: expressed in transfected cells; host or cells: CHO cells (stably transfected; Treiber et al. 2007)
T1 sequence (Q9Y6L6 1-691): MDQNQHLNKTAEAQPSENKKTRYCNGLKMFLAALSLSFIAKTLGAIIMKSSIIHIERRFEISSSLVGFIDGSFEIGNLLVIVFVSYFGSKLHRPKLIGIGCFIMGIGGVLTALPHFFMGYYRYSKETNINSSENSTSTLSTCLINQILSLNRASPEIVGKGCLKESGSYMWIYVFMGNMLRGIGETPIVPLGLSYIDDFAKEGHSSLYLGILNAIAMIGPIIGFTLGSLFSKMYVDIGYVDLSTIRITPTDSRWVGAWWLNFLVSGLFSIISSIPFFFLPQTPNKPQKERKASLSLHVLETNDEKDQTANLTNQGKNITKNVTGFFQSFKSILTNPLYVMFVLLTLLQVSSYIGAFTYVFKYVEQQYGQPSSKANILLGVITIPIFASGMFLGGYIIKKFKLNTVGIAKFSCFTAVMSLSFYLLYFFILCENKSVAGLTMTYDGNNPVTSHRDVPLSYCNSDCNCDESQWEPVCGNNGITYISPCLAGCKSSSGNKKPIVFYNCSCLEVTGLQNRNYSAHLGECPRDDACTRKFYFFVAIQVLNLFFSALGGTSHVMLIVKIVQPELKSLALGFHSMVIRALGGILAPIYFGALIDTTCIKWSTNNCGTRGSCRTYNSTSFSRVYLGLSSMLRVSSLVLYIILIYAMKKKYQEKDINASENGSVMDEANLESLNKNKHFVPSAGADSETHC
Protocol: FIGS. 3A-3D relate to inhibition of transport activity of hepatocellular uptake transporters by CLF. CHO cells expressing NTCP, OATP1B1, OATP1B3 and OATP2B1 were incubated with 0, 5 or 50 μmol/L CLF and with the substrates, 2.5 μmol/L TC, 1 μmol/L estrone-3-sulfate, 10 μmol/L TC and 1 μmol/L estrone-3-sulfate, respectively. Data represent means±SD of triplicate determinations.
For all transport experiments, cells grown on 3 cm culture dishes were cultured for 24 hours in media supplemented with 5 mmol/L sodium-butyrate to increase expression levels of transfected transporters [Palermo D P et al., J Biotechnol 1991 June; 19(1):35-47]. • Transport experiments with uptake of radioactively labeled substrates: These experiments were performed as described by Huber R D et al. [Am J Physiol Cell Physiol 2007 February; 292(2):C795-C806]. • Transport experiments with uptake of CLF: Uptake was performed in the same buffers as for the radioactive substrates above. […] After complete solubilization, 1.5 ml was used to measure fluorescence in a Perkin-Elmer LS-5 luminescence-spectrometer set at λexe 486 nm (slit 10 nm) and λem 520 nm (slit 5 nm). Protein was determined with the bicinchoninic acid method using a kit from Interchim (Montfuçon, France). […]

[2] = Biliary secretion study of CLF in wild type, Abcc2-/- and Abcc3-/- mice; format: in vivo; details: FVB, mouse, blood, intravenous, 100 μL of 1 mmol/L CLF, 120 minutes after administration, read-out: blood levels of CLF
Protocol: (§1) Mice received 100 μL of 1 mmol/L CLF by injection in the tail vein. Data represent means±SD. Plasma levels are expressed in nmol/L and levels in urine, liver and bile as percentage of administered dose. Significance was tested using two-sided Student's t-test: *P<0.05 for Abcc2^-/- vs wild type mice. Data represent means±SD. Abcc2^-/- mice (against a Friend virus B-type (FVB) background) were bred at the National Cancer Institute (Amsterdam, The Netherlands). Production and characterization of the Abcc2^-/- mice was as described by […] et al. [J Pharmacol Exp Ther 2006 July; 318(1):319-327]. Wild type and Abcc3^-/- mice (against an FVB background) were bred at the animal institute of the Academic Medical Center. Production and characterization of the Abcc3^-/- mice was as described by Zelcer et al. [J Hepatol 2006 April; 44(4):768-775]. For biliary secretion studies, the gall bladder was cannulated with PE10 polyethylene tubing and 100 μL (1 mmol/L) CLF was injected in the tail vein. Bile was collected in 10 minutes fractions; liver and blood were harvested at the end of the experiment. Homogenised livers were deproteinised by adding 2 volumes of MeOH, and bile and blood samples were diluted with 0.1% Triton-X-100. The amount CLF was quantitated by measurement of fluorescence as described above.

[3] = test system: Abcc2 and Abcc3; test: as above; format: in vivo; details: for cumulative biliary excretion of CLF / hepatic retention of CLF: 120 minutes after administration
Protocol: as §1

CC(CCC(=O)NC(CCCCNC(=S)Nc1ccc(-c2c3ccc(=O)cc-3oc3cc(O)ccc23)c(C(=O)O)c1)C(=O)O)C1CCC2C3C(O)CC4CC(O)CCC4(C)C3CC(O)C12C (centres unmarked) [CLF, cholyl lysyl fluorescein]
inhibition of transport of estrone-3-sulfate mediated by OATP1B1 by CLF [1]: much less efficiently | concentration at 120 min ([2]; Abcc2-/- mice): 1310 ± 749 nM | concentration at 120 min ([2]; wt mice): 83 ± 21 nM | biliary output of CLF in Abcc3-/- mice in comparison with wild type mice ([3]; 100 μL 1 mmol/L CLF in the tail vein): not affected | CLF dose excreted into bile within 20 minutes ([3]; Abcc2-/- mice, 100 μL 1 mmol/L CLF in the tail vein): less than 2% | cumulative biliary excretion of CLF ([3]; Abcc2-/- mice): 32 % of the administered dose | hepatic retention of CLF ([3]; Abcc2-/- mice): 64 % of the administered dose | plasma and liver CLF contents in Abcc3-/- mice in comparison with wild type mice ([3]; after 2 hours): no differences | CLF dose excreted into bile within 20 minutes ([3]; wild type mice, 100 μL 1 mmol/L CLF in the tail vein): ~70% | cumulative biliary excretion of CLF ([3]; wild type mice): 85 % of the administered dose | hepatic retention of CLF ([3]; wt mice): 1 % of the administered dose

From patent US8318504B2, “MRP2 efflux pathway prognostic method” (priority 2009, dated 2012)
